Assay results as given in patent EP0308559A2, “Cephalosporins, process for their preparation, pharmaceutical compositions containing them and intermediates” (BEECHAM GROUP PLC, priority 1987, dated 1989).
Structures can show the parent of a compound that is named as a salt.

Key:
[1] = system: Enterobacter cloacae P99; assay: Minimum Inhibitory Concentration (MIC) by serial dilution in agar; assay type: cell-based
Protocol: (§1) Minimum Inhibitory Concentration (MIC) values of compounds of the invention against Enterobacter cloacae P99 and Pseudomonas aeruginosa Charlier were determined by serial dilution in agar. The plates were inoculated with 10⁴ colony forming units and incubated overnight at 37°C. The MIC values recorded in Table 1 were the lowest concentration of antibiotic to inhibit growth. Comparative data for 7β-[2-(3,4-diacetoxyphenyl)-2-[4-ethyl-2,3-dioxopiperazin-1-yl)carbonylamino]-acetamido]-7α-formamido-3-[1-methyl-1H-tetrazol-5-yl) thiomethyl]ceph-3-em-4-carboxylic acid, sodium salt (compound A), disclosed in European Patent Application No.82303821.1 (Publication Number 0 071 395; Example 57), are also given.

[2] = system: Pseudomonas aeruginosa Charlier; assay: as above; assay type: cell-based; conditions: 10⁴ colony forming units, incubated overnight at 37°C, lowest concentration to inhibit growth
Protocol: as §1

| Structure (SMILES) | MIC [1] | MIC [2] |
| --- | --- | --- |
| CCN1CCN(C(=O)N[C@@H](C(=O)N[C@]2(NC=O)C(=O)N3C(C(=O)O)=C(CSc4nnnn4N)CS[C@@H]32)c2ccc(O)c(O)c2)C(=O)C1=O [Example 2, Sodium 3-[(1-Amino-1H-tetrazol-5-yl)thiomethyl]-7β-[D-2-(3,4-dihydroxyphenyl)-2-[(4-ethyl-2,3-dioxopiperazin-1-yl)carbonylamino]acetamido]-7α-formamidoceph-3-em-4-carboxylate] | 4 µg/mL | 2 µg/mL |
| CCN1CCN(C(=O)NC(C(=O)N[C@]2(NC=O)C(=O)N3C(C(=O)O)=C(CSc4nnnn4C)CS[C@@H]32)c2ccc(OC(C)=O)c(OC(C)=O)c2)C(=O)C1=O (stereo partly drawn) [Compound A, 7β-[2-(3,4-diacetoxyphenyl)-2-[4-ethyl-2,3-dioxopiperazin-1-yl)carbonylamino]acetamido]-7α-formamido-3-[1-methyl-1H-tetrazol-5-yl) thiomethyl]ceph-3-em-4-carboxylic acid, sodium salt, reference compound] | 8 µg/mL | 4 µg/mL |
| CCN1CCN(C(=O)N[C@@H](C(=O)N[C@]2(NC=O)C(=O)N3C(C(=O)O)=C(CSc4nnnn4N)CS[C@@H]32)c2ccc(OC(C)=O)c(OC(C)=O)c2)C(=O)C1=O [Example 1, Sodium 3-[(1-Amino-1H-tetrazol-5-yl)thiomethyl]-7β-[D-2-(3,4-diacetoxyphenyl)-2-[(4-ethyl-2,3-dioxopiperazin-1-yl)carbonylamino]acetamido]-7α-formamidoceph-3-em-4-carboxylate] | 2 µg/mL | 2 µg/mL |
